# According to ChEMBL document CHEMBL3396997, “Piperidine-3,4-diol and piperidine-3-ol derivatives of pyrrolo[2,1-f][1,2,4]triazine as inhibitors of anaplastic lymphoma kinase” (Bioorg Med Chem Lett, 2015):
# Activity calls are given as the source filed them. The rule behind the calls is not given here.
# Columns and labels:
# [1] = Half life in mouse liver microsomes; assay type: ADME
# [2] = Half life in monkey liver microsomes; assay type: ADME, Macaca mulatta; conditions: rhesus monkey
# [3] = Half life in rat liver microsomes; assay type: ADME
# [4] = Half life in human liver microsomes; assay type: ADME
# [5] = Solubility in water at neutral pH; assay type: physicochemical
# Cytochrome P450 3A4 = Cytochrome P450 3A4 (Homo sapiens, UniProt P08684); experiment: Inhibition of CYP3A4 (unknown origin); assay type: ADME
# Chain of Cytochrome P450 3A4 (P08684 whole entry): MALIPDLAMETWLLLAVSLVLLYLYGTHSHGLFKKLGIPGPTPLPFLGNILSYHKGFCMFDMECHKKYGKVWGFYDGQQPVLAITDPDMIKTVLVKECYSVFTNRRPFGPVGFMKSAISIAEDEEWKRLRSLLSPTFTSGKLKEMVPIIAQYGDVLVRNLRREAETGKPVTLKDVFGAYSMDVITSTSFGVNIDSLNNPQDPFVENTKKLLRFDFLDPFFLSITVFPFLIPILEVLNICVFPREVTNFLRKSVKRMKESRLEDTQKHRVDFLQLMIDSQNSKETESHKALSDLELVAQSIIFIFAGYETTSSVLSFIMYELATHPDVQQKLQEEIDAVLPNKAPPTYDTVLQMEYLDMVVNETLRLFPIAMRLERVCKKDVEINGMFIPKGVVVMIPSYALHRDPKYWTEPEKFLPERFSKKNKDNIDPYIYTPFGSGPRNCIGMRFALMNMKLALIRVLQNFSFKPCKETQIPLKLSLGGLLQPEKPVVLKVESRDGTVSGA
# Brain [6] = experiment: (§1) Drug concentration in brain of human SUP-M2 cells xenografted SCID mouse at 30 mg/kg, po measured after 2 hrs; assay type: ADME, organism-based; set-up: dose 30 mg/kg, route oral; conditions: in vivo, 2 h
# Plasma [7] = experiment: (§2) Plasma concentration in human SUP-M2 cells xenografted SCID mouse at 30 mg/kg, po measured after 2 hrs; assay type: ADME, organism-based; set-up: dose 30 mg/kg, route oral; conditions: in vivo, 2 h
# [8] = Plasma concentration in human SUP-M2 cells xenografted SCID mouse at 30 mg/kg, po measured after 16 hrs; assay type: ADME, organism-based; set-up: dose 30 mg/kg, route oral
# [9] = target: Voltage-gated inwardly rectifying potassium channel KCNH2 (Homo sapiens, UniProt Q12809); experiment: Inhibition of human ERG by patch clamp cellular assay
# Chain of Voltage-gated inwardly rectifying potassium channel KCNH2 (Q12809 whole entry): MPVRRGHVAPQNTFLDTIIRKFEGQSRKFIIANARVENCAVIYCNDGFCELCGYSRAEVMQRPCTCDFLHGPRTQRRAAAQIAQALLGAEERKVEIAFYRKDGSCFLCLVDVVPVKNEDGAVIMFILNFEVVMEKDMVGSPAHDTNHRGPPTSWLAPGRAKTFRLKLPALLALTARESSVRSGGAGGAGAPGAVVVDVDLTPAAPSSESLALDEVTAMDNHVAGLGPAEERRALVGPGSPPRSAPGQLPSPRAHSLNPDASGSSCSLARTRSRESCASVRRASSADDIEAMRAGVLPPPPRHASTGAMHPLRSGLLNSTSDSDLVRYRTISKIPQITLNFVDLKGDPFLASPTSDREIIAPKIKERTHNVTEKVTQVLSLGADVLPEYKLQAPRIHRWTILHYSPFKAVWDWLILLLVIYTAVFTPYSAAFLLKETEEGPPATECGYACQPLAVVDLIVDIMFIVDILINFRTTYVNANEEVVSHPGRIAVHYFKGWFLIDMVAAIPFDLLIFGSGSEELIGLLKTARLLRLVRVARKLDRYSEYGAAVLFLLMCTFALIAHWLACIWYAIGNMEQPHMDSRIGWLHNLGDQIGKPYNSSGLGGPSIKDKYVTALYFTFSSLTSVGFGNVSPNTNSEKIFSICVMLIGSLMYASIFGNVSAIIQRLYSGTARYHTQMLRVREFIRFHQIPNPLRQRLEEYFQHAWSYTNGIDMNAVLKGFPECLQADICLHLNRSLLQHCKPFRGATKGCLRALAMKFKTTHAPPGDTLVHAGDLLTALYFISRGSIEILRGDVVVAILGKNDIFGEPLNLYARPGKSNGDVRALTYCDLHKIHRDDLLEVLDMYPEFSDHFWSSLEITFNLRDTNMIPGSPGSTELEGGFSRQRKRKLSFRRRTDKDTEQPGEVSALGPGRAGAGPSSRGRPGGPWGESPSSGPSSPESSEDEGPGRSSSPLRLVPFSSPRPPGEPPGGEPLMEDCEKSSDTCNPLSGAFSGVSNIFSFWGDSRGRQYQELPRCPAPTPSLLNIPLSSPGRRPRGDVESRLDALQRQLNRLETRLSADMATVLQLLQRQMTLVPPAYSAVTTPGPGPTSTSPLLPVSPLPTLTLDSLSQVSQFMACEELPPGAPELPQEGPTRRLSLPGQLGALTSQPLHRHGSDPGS
# Mus musculus [10] = experiment: Toxicity in human SUP-M2 cells xenografted SCID mouse assessed as body weight loss at 55 mg/kg, po BID for 10 days; assay type: organism-based; set-up: dose 55 mg/kg, route oral; conditions: in vivo, 240 h
# Cytochrome P450 2C9 = Cytochrome P450 2C9 (Homo sapiens, UniProt P11712); experiment: Inhibition of CYP2C9 (unknown origin); assay type: ADME
# Chain of Cytochrome P450 2C9 (P11712 whole entry): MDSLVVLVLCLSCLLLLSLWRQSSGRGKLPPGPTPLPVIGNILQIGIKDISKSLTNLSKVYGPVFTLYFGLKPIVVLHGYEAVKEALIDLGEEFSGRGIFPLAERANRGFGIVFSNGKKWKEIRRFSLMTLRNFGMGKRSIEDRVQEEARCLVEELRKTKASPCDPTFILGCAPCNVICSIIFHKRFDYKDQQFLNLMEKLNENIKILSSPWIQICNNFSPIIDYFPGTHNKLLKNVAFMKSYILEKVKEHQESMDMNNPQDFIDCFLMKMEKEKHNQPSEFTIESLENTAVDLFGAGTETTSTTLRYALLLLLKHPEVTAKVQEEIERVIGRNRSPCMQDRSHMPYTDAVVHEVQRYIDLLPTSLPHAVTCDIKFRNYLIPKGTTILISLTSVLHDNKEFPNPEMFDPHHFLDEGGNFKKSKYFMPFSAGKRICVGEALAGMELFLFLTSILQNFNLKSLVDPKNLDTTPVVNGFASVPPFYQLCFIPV
# Cytochrome P450 1A2 = target: T1, Cytochrome P450 1A2 (Homo sapiens, UniProt P05177); experiment: Inhibition of CYP1A2 (unknown origin); assay type: ADME
# T1 sequence (P05177 whole entry): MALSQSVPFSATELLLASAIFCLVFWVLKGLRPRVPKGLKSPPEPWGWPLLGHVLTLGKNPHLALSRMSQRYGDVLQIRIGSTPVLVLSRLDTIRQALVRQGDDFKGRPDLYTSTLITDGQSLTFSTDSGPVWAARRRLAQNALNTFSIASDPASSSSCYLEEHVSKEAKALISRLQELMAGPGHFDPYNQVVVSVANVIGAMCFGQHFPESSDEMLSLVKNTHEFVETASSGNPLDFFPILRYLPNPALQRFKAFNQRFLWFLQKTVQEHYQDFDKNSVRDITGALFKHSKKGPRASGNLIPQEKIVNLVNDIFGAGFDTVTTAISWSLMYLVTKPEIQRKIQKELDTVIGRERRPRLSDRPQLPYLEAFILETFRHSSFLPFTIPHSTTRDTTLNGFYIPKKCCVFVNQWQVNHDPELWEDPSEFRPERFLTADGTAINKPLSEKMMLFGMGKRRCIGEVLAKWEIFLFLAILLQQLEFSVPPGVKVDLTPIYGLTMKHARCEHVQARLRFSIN
# Brain [11] = experiment: (§3) Drug concentration in brain of human SUP-M2 cells xenografted SCID mouse at 30 mg/kg, po measured after 6 hrs; assay type: ADME, organism-based; set-up: dose 30 mg/kg, route oral; conditions: in vivo, 6 h
# Plasma [12] = experiment: (§4) Plasma concentration in human SUP-M2 cells xenografted SCID mouse at 30 mg/kg, po measured after 6 hrs; assay type: ADME, organism-based; set-up: dose 30 mg/kg, route oral; conditions: in vivo, 6 h
# Cytochrome P450 2D6 = Cytochrome P450 2D6 (Homo sapiens, UniProt P10635); experiment: Inhibition of CYP2D6A (unknown origin); assay type: ADME
# Chain of Cytochrome P450 2D6 (P10635 whole entry): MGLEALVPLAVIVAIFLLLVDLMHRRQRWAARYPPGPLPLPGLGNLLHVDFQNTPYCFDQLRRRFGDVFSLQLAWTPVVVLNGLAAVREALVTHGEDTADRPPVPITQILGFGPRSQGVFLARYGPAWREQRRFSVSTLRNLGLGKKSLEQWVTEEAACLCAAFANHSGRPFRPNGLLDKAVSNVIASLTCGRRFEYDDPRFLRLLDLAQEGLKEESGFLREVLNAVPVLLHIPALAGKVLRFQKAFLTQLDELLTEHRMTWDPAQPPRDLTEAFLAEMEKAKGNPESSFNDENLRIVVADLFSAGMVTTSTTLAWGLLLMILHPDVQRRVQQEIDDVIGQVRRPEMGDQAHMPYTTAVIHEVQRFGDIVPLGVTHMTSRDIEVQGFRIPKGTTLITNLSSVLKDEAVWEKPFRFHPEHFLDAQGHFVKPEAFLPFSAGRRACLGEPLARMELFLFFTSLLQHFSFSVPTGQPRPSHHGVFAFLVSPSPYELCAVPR
# Cytochrome P450 2C19 = Cytochrome P450 2C19 (Homo sapiens, UniProt P33261); experiment: Inhibition of CYP2C19 (unknown origin); assay type: ADME
# Chain of Cytochrome P450 2C19 (P33261 whole entry): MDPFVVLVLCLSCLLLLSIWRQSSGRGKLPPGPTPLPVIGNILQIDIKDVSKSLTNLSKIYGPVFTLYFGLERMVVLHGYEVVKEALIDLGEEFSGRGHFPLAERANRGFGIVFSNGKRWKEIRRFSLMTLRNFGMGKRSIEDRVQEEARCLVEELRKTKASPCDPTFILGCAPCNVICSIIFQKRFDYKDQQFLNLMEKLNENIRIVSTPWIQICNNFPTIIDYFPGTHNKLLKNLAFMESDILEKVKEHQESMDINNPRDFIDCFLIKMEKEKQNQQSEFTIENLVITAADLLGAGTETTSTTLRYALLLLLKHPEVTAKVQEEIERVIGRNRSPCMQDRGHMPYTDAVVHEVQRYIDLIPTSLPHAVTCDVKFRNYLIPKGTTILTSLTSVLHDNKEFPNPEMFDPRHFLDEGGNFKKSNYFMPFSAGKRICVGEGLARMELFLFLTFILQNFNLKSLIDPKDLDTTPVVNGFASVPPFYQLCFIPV
# Mus musculus [13] = experiment: Toxicity in human SUP-M2 cells xenografted SCID mouse assessed as incidences of overt toxicity at 55 mg/kg, po BID for 10 days; assay type: organism-based; set-up: dose 55 mg/kg, route oral; conditions: in vivo, 240 h
# Mus musculus [14] = experiment: Toxicity in human SUP-M2 cells xenografted SCID mouse assessed as body weight loss at 30 mg/kg, po BID for 10 days; assay type: organism-based; set-up: dose 30 mg/kg, route oral; conditions: in vivo, 240 h
# Mus musculus [15] = experiment: Toxicity in human SUP-M2 cells xenografted SCID mouse assessed as incidences of overt toxicity at 30 mg/kg, po BID for 10 days; assay type: organism-based; set-up: dose 30 mg/kg, route oral; conditions: in vivo, 240 h
# [16] = Drug concentration in brain of human SUP-M2 cells xenografted SCID mouse at 30 mg/kg, po measured after 16 hrs; assay type: ADME, organism-based; set-up: dose 30 mg/kg, route oral; conditions: read-out: Drug uptake
# SUP-M2 [17] = experiment: Antitumor activity against human SUP-M2 cells xenografted in SCID mouse assessed as induction of tumor regression at 30 mg/kg, po BID for 10 days; assay type: functional, organism-based; set-up: dose 30 mg/kg
# SUP-M2 [18] = experiment: Antitumor activity against human SUP-M2 cells xenografted in SCID mouse assessed as induction of tumor regression at 55 mg/kg, po BID for 10 days; assay type: functional, organism-based; set-up: dose 55 mg/kg
# [19] = as §1; assay type: ADME, organism-based; set-up: dose 30 mg/kg, route oral; conditions: SCID, brain, read-out: Drug uptake
# [20] = Drug concentration in brain of human SUP-M2 cells xenografted SCID mouse at 30 mg/kg, po measured after 12 hrs; assay type: ADME, organism-based; set-up: dose 30 mg/kg, route oral; conditions: read-out: Drug uptake
# [21] = Clearance in Sprague-Dawley rat at 1 mg/kg, iv; assay type: ADME, organism-based; set-up: dose 1 mg/kg, route intravenous; conditions: in vivo
# [22] = as §2; assay type: ADME, organism-based; set-up: dose 30 mg/kg, route oral; conditions: SCID, plasma
# [23] = Cmax in Sprague-Dawley rat at 5 mg/kg, po; assay type: ADME, organism-based; set-up: dose 5 mg/kg, route oral; conditions: in vivo
# [24] = Oral bioavailability in Sprague-Dawley rat at 5 mg/kg; assay type: ADME, organism-based; conditions: in vivo
# [25] = Half life in Sprague-Dawley rat at 1 mg/kg, iv; assay type: ADME, organism-based; set-up: dose 1 mg/kg, route intravenous; conditions: in vivo
# [26] = AUC (0 to infinity) in Sprague-Dawley rat at 5 mg/kg, po; assay type: ADME, organism-based; set-up: time infinity, dose 5 mg/kg, route oral; conditions: plasma
# [27] = Plasma concentration in human SUP-M2 cells xenografted SCID mouse at 30 mg/kg, po measured after 24 hrs; assay type: ADME, organism-based; set-up: dose 30 mg/kg, route oral
# [28] = Volume of distribution in Sprague-Dawley rat at 1 mg/kg, iv; assay type: ADME, organism-based; set-up: dose 1 mg/kg, route intravenous; conditions: in vivo
# [29] = as §3; assay type: ADME, organism-based; set-up: dose 30 mg/kg, route oral; conditions: SCID, brain, read-out: Drug uptake
# [30] = as §4; assay type: ADME, organism-based; set-up: dose 30 mg/kg, route oral; conditions: SCID, plasma
# [31] = Drug concentration in brain of human SUP-M2 cells xenografted SCID mouse at 30 mg/kg, po measured after 24 hrs; assay type: ADME, organism-based; set-up: dose 30 mg/kg, route oral; conditions: read-out: Drug uptake
# [32] = Tmax in Sprague-Dawley rat at 5 mg/kg, po; assay type: ADME, organism-based; set-up: dose 5 mg/kg, route oral; conditions: in vivo
# [33] = Plasma concentration in human SUP-M2 cells xenografted SCID mouse at 30 mg/kg, po measured after 12 hrs; assay type: ADME, organism-based; set-up: dose 30 mg/kg, route oral
# [34] = AUC (0 to infinity) in Sprague-Dawley rat at 1 mg/kg, iv; assay type: ADME, organism-based; set-up: time infinity, dose 1 mg/kg, route intravenous; conditions: plasma
smiles,measurement,setting,value
COc1cc([C@@]2(O)CCNC[C@@H]2O)ccc1Nc1ncc2ccc(-c3ccccc3N(C)S(C)(=O)=O)n2n1,half-life,[1],> 40 min
same,half-life,[2],25 min
same,half-life,[3],> 40 min
same,half-life,[4],> 40 min
COc1cc([C@@]2(O)CCNC[C@@H]2O)ccc1Nc1ncc2ccc(-c3ccccc3OC)n2n1,half-life,[1],> 40 min
same,half-life,[2],> 40 min
same,half-life,[3],> 40 min
same,half-life,[4],> 40 min
COc1cc([C@@]2(O)CCN(CC(N)=O)C[C@@H]2O)ccc1Nc1ncc2ccc(-c3ccccc3N(C)S(C)(=O)=O)n2n1,solubility,[5],≥ 33 µg/mL
same,half-life,[1],> 40 min
same,half-life,[2],8 min
same,half-life,[3],26 min
same,half-life,[4],32 min
COc1cc([C@@]2(O)CCN(CC(N)=O)C[C@@H]2O)ccc1Nc1ncc2ccc(-c3ccccc3OC)n2n1,solubility,[5],≥ 33 µg/mL
same,half-life,[1],> 40 min
same,half-life,[2],17 min
same,half-life,[3],31 min
same,half-life,[4],> 40 min
COc1cc([C@H]2CCN(CCO)C[C@@H]2O)ccc1Nc1ncc2ccc(-c3ccccc3OC)n2n1 [listing 1 of 2 here],IC50,Cytochrome P450 3A4,12 µM
same,Drug uptake,Brain [6],1217 ng/g
same,Cp,Plasma [7],407 ng/mL
same,concentration at 16 h,[8],567 ng/mL
same,IC50,[9],6.8 µM
same,Activity,Mus musculus [10],Non-toxic
same,IC50,Cytochrome P450 2C9,19 µM
same,IC50,Cytochrome P450 1A2,> 30 µM
same,Drug uptake,Brain [11],3150 ng/g
same,Cp,Plasma [12],573 ng/mL
same,IC50,Cytochrome P450 2D6,> 30 µM
same,IC50,Cytochrome P450 2C19,17 µM
same,Activity,Mus musculus [13],Non-toxic
same,Activity,Mus musculus [14],Non-toxic
same,Activity,Mus musculus [15],Non-toxic
same,concentration at 16 h,[16],16100 ng/g
COc1cc([C@H]2CCN(CCO)C[C@@H]2O)ccc1Nc1ncc2ccc(-c3ccccc3OC)n2n1 [listing 2 of 2 here],inhibition,SUP-M2 [17],Active
same,inhibition,SUP-M2 [18],Active
COc1cc(C2CCN(C)CC2O)ccc1Nc1ncc2ccc(-c3ccccc3OC)n2n1 (racemic),half-life,[1],18 min
same,half-life,[2],22 min
same,half-life,[3],> 40 min
same,half-life,[4],> 40 min
COc1cc([C@@H]2CCN(CCO)C[C@@H]2O)ccc1Nc1ncc2ccc(-c3ccccc3OC)n2n1 (racemic),solubility,[5],50 µg/mL
same,concentration at 2 h,[19],1650 ng/g
same,concentration at 12 h,[20],2520 ng/g
same,clearance,[21],46 mL/min/kg
same,concentration at 2 h,[22],389 ng/mL
same,Cmax,[23],85 ng/mL
same,bioavailability,[24],26%
same,half-life,[25],150 min
same,half-life,[1],37 min
same,AUC(0-inf),[26],479 ng·h/mL
same,concentration at 24 h,[27],19 ng/mL
same,Vd,[28],9.9 L/kg
same,half-life,[2],> 40 min
same,concentration at 6 h,[29],1770 ng/g
same,concentration at 6 h,[30],201 ng/mL
same,concentration at 24 h,[31],1580 ng/g
same,Tmax,[32],360 min
same,half-life,[3],> 40 min
same,concentration at 12 h,[33],164 ng/mL
same,half-life,[4],> 40 min
same,AUC(0-inf),[34],371 ng·h/mL
COc1cc([C@@H]2CCNC[C@@H]2O)ccc1Nc1ncc2ccc(-c3ccccc3OC)n2n1 (relative stereo),half-life,[1],> 40 min
same,half-life,[2],> 40 min
same,half-life,[3],> 40 min
same,half-life,[4],> 40 min
COc1cc([C@@]2(O)CCN(C)C[C@@H]2O)ccc1Nc1ncc2ccc(-c3ccccc3OC)n2n1 (relative stereo),IC50,[9],Active
same,half-life,[1],> 40 min
same,half-life,[2],32 min
same,half-life,[3],> 40 min
same,half-life,[4],> 40 min
COc1cc([C@@H]2CCN(CC(N)=O)C[C@@H]2O)ccc1Nc1ncc2ccc(-c3ccccc3OC)n2n1 (relative stereo),solubility,[5],2 µg/mL
same,half-life,[1],> 40 min
same,half-life,[2],7 min
same,half-life,[3],34 min
same,half-life,[4],19 min
COc1cc([C@H]2CCN(CCO)C[C@@H]2O)ccc1Nc1ncc2ccc(-c3ccccc3OC)n2n1 (relative stereo),concentration at 2 h,[19],1960 ng/g
same,concentration at 12 h,[20],2670 ng/g
same,clearance,[21],39 mL/min/kg
same,concentration at 2 h,[22],523 ng/mL
same,Cmax,[23],97 ng/mL
same,bioavailability,[24],31%
same,half-life,[25],192 min
same,half-life,[1],> 40 min
same,AUC(0-inf),[26],708 ng·h/mL
same,concentration at 24 h,[27],55 ng/mL
same,Vd,[28],10.3 L/kg
same,half-life,[2],30 min
same,concentration at 6 h,[29],3930 ng/g
same,concentration at 6 h,[30],361 ng/mL
same,concentration at 24 h,[31],1280 ng/g
same,Tmax,[32],240 min
same,half-life,[3],> 40 min
same,concentration at 12 h,[33],213 ng/mL
same,half-life,[4],> 40 min
same,AUC(0-inf),[34],459 ng·h/mL
"COc1cc(C2CCN(CCO)CC2O)ccc1Nc1ncc2ccc(-c3ccccc3OC)n2n1 (single isomer, unassigned; enantiomer 1)",concentration at 2 h,[19],1030 ng/g
same,concentration at 2 h,[22],355 ng/mL
same,concentration at 16 h,[8],51 ng/mL
same,concentration at 6 h,[29],1160 ng/g
same,concentration at 6 h,[30],148 ng/mL
same,concentration at 16 h,[16],2210 ng/g
